Patent publication US20250257034A1, “INDOLE DERIVATIVES AS SEROTONERGIC AGENTS USEFUL FOR THE TREATMENT OF DISORDERS RELATED THERETO” (priority 2023, published 2025)
“And” between values parts separate entries of the source, which are not always exact repeats. Identical values can stand only once. Like-named read-outs stand apart in the source and are kept apart here.

Key:
[1] = Human liver microsomes stability; assay type: in vitro ADME; conditions: Human liver microsomes; for half-life at 2 μM / microsomal CLint at 2 μM: 2 μM compound, 0.5 mg/mL microsomes, 1 mM NADPH; for half-life at 2 μM: 37° C; for microsomal CLint at 2 μM: read-out: CLint (μL/min/mg protein); for CLint scaled at 2 μM: read-out: Scaled-up CLint
Method in brief: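 In this assay, 2 μM compound is incubated with NADPH-supplemented liver microsomes (human pooled; male rat; male mouse) at 37° C for up to 60 min. Depletion is followed by LC-MS/MS, and CLint is expressed per mg microsomal protein.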

[2] = Mouse liver microsomes stability; assay type: in vitro ADME; conditions: Mouse liver microsomes; for microsomal CLint at 2 μM / half-life at 2 μM / CLint scaled at 2 μM: male; for microsomal CLint at 2 μM: mouse, liver microsomes, read-out: CLint (μL/min/mg protein); for microsomal CLint at 2 μM / half-life at 2 μM: 2 μM compound, 0.5 mg/mL microsomes, 1 mM NADPH; for half-life at 2 μM: 37° C; for CLint scaled at 2 μM: read-out: Scaled-up CLint
[3] = Pharmacokinetic studies in rat (i.v.); assay type: in vivo; conditions: rat plasma; for Apparent t1/2 / half-life: estimated from 2 points only; for concentration at 0.25 h / concentration at 1 h / half-life / AUC(0-t) / concentration at 4 h: male, Sprague-Dawley, rat, plasma, iv; for concentration at 0.25 h / concentration at 1 h / concentration at 4 h: read-out: Plasma concentration; for half-life: read-out: Apparent t1/2 (converted); for AUC(0-t): read-out: AUC0-tlast
Experimental: Animals: Male Sprague-Dawley rats (˜225-350 g) from Charles River Labs were acclimatized for a minimum of 5 days prior to start of study procedures. Body weights were recorded on the day of dosing.
Any abnormalities were documented including presence/absence of wet dog shakes/back muscle contractions (WDS/BMC).
Dosing: Formulations were administered intravenously (i.v.) via the tail vein using a 25 G needle connected to a 1 cc syringe.
The Compounds of Formula (I) were freshly prepared at the appropriate concentrations in 5% Tween-80 in saline.
Blood collection time (h): 0.25, 1 and 4.
Volume/time-point: ˜0.25 mL […] (saphenous vein).
Instrumentation: AB Sciex QTRAP 4000 or 6500 MS/MS system equipped with an LC system with a binary pump, a solvent degasser, a thermostatted column compartment and a multiplate autosampler.
Analysis software: Phoenix® WinNonlin® 8.3 (Pharsight, Certara, Mountainview, CA).
Analysis methods: non-compartmental analysis, linear up/log down trapezoidal rule.
PK parameters: t1/2 and AUC0-tlast were be estimated.
Volume/time-point: ˜0.25 mL (saphenous vein).
PK parameters: t1/2 and AUC0-tlast were estimated.

[4] = I-1 1.10 mg/kg i.v., individual rats R04-R06, 1.1 mg/kg
[5] = 1.1 mg/kg, I-1 1.10 mg/kg i.v., Mean ± SD
[6] = 1.1 mg/kg, I-1 1.10 mg/kg i.v., individual rats R04-R06
[7] = I-12 1.2 mg/kg i.v., individual rats R01-R03, 1.2 mg/kg
[8] = 1.2 mg/kg, I-12 1.2 mg/kg i.v., individual rats R01-R03
[9] = I-13 1.14 mg/kg i.v., individual rats R04-R06, 1.14 mg/kg
[10] = 1.14 mg/kg, I-13 1.14 mg/kg i.v., individual rats R04-R06

SMILES: [2H]C([2H])([2H])N(CCc1c[nH]c2ccc(SC)cc12)C([2H])([2H])[2H] [Compound I-1, N,N-Bis(methyl-d3)-2-(5-(methylthio)-1H-indol-3-yl)ethan-1-amine]
- Predicted hepatic CL [1]: 19.31 mL/min/kg
- half-life at 2 μM [1]: 6.04 min
- microsomal CLint at 2 μM [1]: 230 µL/min/mg
- CLint scaled at 2 μM [1]: 288 mL/min/kg
- Predicted hepatic CL [2]: 81.96 mL/min/kg
- microsomal CLint at 2 μM [2]: 210 µL/min/mg
- half-life at 2 μM [2]: 6.61 min
- CLint scaled at 2 μM [2]: 918 mL/min/kg
- Plasma concentration ([3]; I-1 1.10 mg/kg i.v., 0.25 h, individual rats R04-R06, 1.1 mg/kg): 15.7 ng/mL and 16.9 ng/mL
- Plasma concentration ([3]; I-1 1.10 mg/kg i.v., 1 h, individual rats R04-R06, 1.1 mg/kg): 0.835 ng/mL and 0.354 ng/mL and 0.298 ng/mL
- Plasma concentration (ng/mL) ([3]; I-1 1.10 mg/kg i.v., 4 h, individual rats R04-R06): BLQ (BLQ denotes below the lower limit of quantitation (0.5 ng/mL))
- AUC0-tlast [3, 4]: 10.9 ng·h/mL and 12.0 ng·h/mL
- Apparent t1/2 [3, 4]: 8.22 min and 7.74 min
- concentration at 0.25 h ([3]; 1.1 mg/kg, I-1 1.10 mg/kg i.v., 0.25 h, Mean ± SD): 16.4 ± 0.624 ng/mL
- concentration at 0.25 h ([3]; 1.1 mg/kg, I-1 1.10 mg/kg i.v., 0.25 h, individual rats R04-R06): 16.6 ng/mL
- concentration at 1 h ([3]; 1.1 mg/kg, I-1 1.10 mg/kg i.v., 1 h, Mean ± SD): 0.496 ± 0.295 ng/mL
- half-life [3, 5]: 8.82 ± 1.44 min
- AUC(0-t) [3, 5]: 11.3 ± 0.587 ng·h/mL
- half-life [3, 6]: 10.4 min
- AUC(0-t) [3, 6]: 11.1 ng·h/mL

SMILES: CCN(CC)CCc1c[nH]c2ccc(SC)cc12 [Compound I-12, N,N-Diethyl-2-(5-(methylthio)-1H-indol-3-yl)ethan-1-amine]
- Predicted hepatic CL [1]: 15.84 mL/min/kg
- half-life at 2 μM [1]: 25.8 min
- microsomal CLint at 2 μM [1]: 53.8 µL/min/mg
- CLint scaled at 2 μM [1]: 67.5 mL/min/kg
- Predicted hepatic CL [2]: 82.50 mL/min/kg
- microsomal CLint at 2 μM [2]: 226 µL/min/mg
- half-life at 2 μM [2]: 6.13 min
- CLint scaled at 2 μM [2]: 990 mL/min/kg
- Plasma concentration ([3]; I-12 1.2 mg/kg i.v., 0.25 h, individual rats R01-R03, 1.2 mg/kg): 53.6 ng/mL and 72.4 ng/mL and 30.1 ng/mL
- Plasma concentration ([3]; I-12 1.2 mg/kg i.v., 1 h, individual rats R01-R03, 1.2 mg/kg): 36.4 ng/mL and 29.7 ng/mL
- Plasma concentration ([3]; I-12 1.2 mg/kg i.v., 4 h, individual rats R01-R03, 1.2 mg/kg): 3.88 ng/mL and 2.55 ng/mL and 6.48 ng/mL
- AUC0-tlast [3, 7]: 97.8 ng·h/mL and 75.7 ng·h/mL
- Apparent t1/2 [3, 7]: 46.7 min
- concentration at 0.25 h ([3]; 1.2 mg/kg, I-12 1.2 mg/kg i.v., 0.25 h, Mean ± SD): 52 ± 21.2 ng/mL
- concentration at 1 h ([3]; 1.2 mg/kg, I-12 1.2 mg/kg i.v., 1 h, Mean ± SD): 31.2 ± 4.6 ng/mL
- concentration at 1 h ([3]; 1.2 mg/kg, I-12 1.2 mg/kg i.v., 1 h, individual rats R01-R03): 27.6 ng/mL
- concentration at 4 h ([3]; 1.2 mg/kg, I-12 1.2 mg/kg i.v., 4 h, Mean ± SD): 4.3 ± 2 ng/mL
- AUC(0-t) ([3]; 1.2 mg/kg, I-12 1.2 mg/kg i.v., Mean ± SD): 84.7 ± 11.6 ng·h/mL
- half-life [3, 8]: 60.6 min
- AUC(0-t) [3, 8]: 80.6 ng·h/mL
- half-life ([3]; 1.2 mg/kg, I-12 1.2 mg/kg i.v., mean (n = 2)): 53.6 min

SMILES: CCN(C)CCc1c[nH]c2ccc(SC)cc12 [Compound I-13, N-Ethyl-N-methyl-2-(5-(methylthio)-1H-indol-3-yl)ethan-1-amine]
- Predicted hepatic CL [1]: 18.16 mL/min/kg
- half-life at 2 μM [1]: 11.7 min
- microsomal CLint at 2 μM [1]: 118 µL/min/mg
- CLint scaled at 2 μM [1]: 148 mL/min/kg
- Predicted hepatic CL [2]: >84.35 mL/min/kg
- microsomal CLint at 2 μM [2]: > 307 µL/min/mg
- half-life at 2 μM [2]: < 4.51 min
- CLint scaled at 2 μM [2]: > 1340 mL/min/kg
- Plasma concentration ([3]; I-13 1.14 mg/kg i.v., 0.25 h, individual rats R04-R06, 1.14 mg/kg): 45.7 ng/mL and 86.5 ng/mL and 113 ng/mL
- Plasma concentration ([3]; I-13 1.14 mg/kg i.v., 1 h, individual rats R04-R06, 1.14 mg/kg): 46.7 ng/mL and 29.7 ng/mL
- Plasma concentration ([3]; I-13 1.14 mg/kg i.v., 4 h, individual rats R04-R06, 1.14 mg/kg): 3.51 ng/mL and 1.11 ng/mL and 0.449 ng/mL
- AUC0-tlast [3, 9]: 109 ng·h/mL and 103 ng·h/mL
- Apparent t1/2 [3, 9]: 28.6 min
- concentration at 0.25 h ([3]; 1.14 mg/kg, I-13 1.14 mg/kg i.v., 0.25 h, Mean ± SD): 81.7 ± 33.9 ng/mL
- concentration at 1 h ([3]; 1.14 mg/kg, I-13 1.14 mg/kg i.v., 1 h, Mean ± SD): 42.9 ± 11.7 ng/mL
- concentration at 1 h ([3]; 1.14 mg/kg, I-13 1.14 mg/kg i.v., 1 h, individual rats R04-R06): 52.2 ng/mL
- concentration at 4 h ([3]; 1.14 mg/kg, I-13 1.14 mg/kg i.v., 4 h, Mean ± SD): 1.69 ± 1.61 ng/mL
- AUC(0-t) ([3]; 1.14 mg/kg, I-13 1.14 mg/kg i.v., Mean ± SD): 105 ± 3.64 ng·h/mL
- half-life [3, 10]: 35.1 min
- AUC(0-t) [3, 10]: 102 ng·h/mL
- half-life ([3]; 1.14 mg/kg, I-13 1.14 mg/kg i.v., mean (n = 2)): 31.9 min
